From ChEMBL document CHEMBL1138145, “Enhanced FTase activity achieved via piperazine interaction with catalytic zinc” (Bioorg Med Chem Lett, 2006)

Columns and labels:
[1] = molecular target: T1, Protein farnesyltransferase (Homo sapiens, UniProt P49354+P49356); assay: Inhibition of farnesyltransferase activity; format: protein-complex assay
[2] = molecular target: T1, Protein farnesyltransferase; assay: Inhibition of farnesyltransferase activity at 0.2 uM; format: protein-complex assay
[3] = AUC in rat at 10 mg/kg, po; format: ADME, organism-based; set-up: dose 10 mg/kg, route oral; settings: plasma
[4] = molecular target: T1, Protein farnesyltransferase; assay: Inhibition of farnesyltransferase activity in COS7 cells transfected with Ras gene in soft agar proliferation; format: functional, cell-based, Chlorocebus aethiops, COS-7

Compound CS(=O)(=O)N1CCC([C@@H]2c3ccc(Cl)cc3C=C(N3CCNCC3)c3cccnc32)CC1 has an IC50 [1] of 76 nM.
Compound CS(=O)(=O)N1CCC([C@H]2c3ccc(Cl)cc3C(N3CCNCC3)=Cc3cccnc32)CC1 has an inhibition [2] of 29%.
Compound CS(=O)(=O)N1CCC([C@@H]2c3ccc(Cl)cc3C(N3CCNCC3)=Cc3cccnc32)CC1 has an IC50 [1] of 7 nM, an AUC [3] of 4 µM·h and an IC50 [4] of 72 nM.
For CS(=O)(=O)N1CCC([C@H]2c3ccc(Cl)cc3C=C(N3CCNCC3)c3cccnc32)CC1, the IC50 [1] was 150 nM.
